The subject of test [1] is MDA-MB-231. The experiment in a line: Percent reduction in cell viability of MDA-MB-231 cells 48 hr after incubation with compound. It is filed as functional, Homo sapiens.
Test [2] concerns MOLT-3. The experiment in a line: Percent reduction in cell viability of MOLT-3 cells 48 hr after incubation with the compound. Format: functional, Homo sapiens.
Test [3] has as its system HeLa. The experiment in a line: Cytotoxic effect of compound measured as cell density of HeLa cells 72 hrs after incubation with compound compared to a initial density of […] cells/mL. It is filed as functional, Homo sapiens.
In test [4] the test system is MOLT-3. The experiment in a line: Concentration for low cytotoxic activity against MOLT-3 cell line; Range is 50-100 uM. Format: functional, cell-based. The note with it: Homo sapiens.
In test [5] the test system is MDA-MB-231. The experiment in a line: Concentration for low cytotoxic activity against MDA-MB-231 cell line; Range is 50-100 uM. It is filed as functional, cell-based. The note with it: Homo sapiens.
The subject of test [6] is HeLa. The experiment in a line: Concentration for low cytotoxic activity against HeLa cell line; Range is 50-100 uM. The note with it: Homo sapiens. Format: functional, cell-based.
The test system of test [7] is L132. The experiment in a line: Concentration for low cytotoxic activity against L-132 cell line; Range is 50-100 uM. The settings on record: Homo sapiens. Format: functional, cell-based.
Test [8] deals with MOLT-3. The experiment in a line: Percent reduction in cell viability of MOLT-3 cells 72 hr after incubation with 50 uM of compound. Format: functional, Homo sapiens.
Test [9] concerns MDA-MB-231. The experiment in a line: Percent reduction in cell viability of MDA-MB-231 cells 72 hr after incubation with compound. It is filed as functional, Homo sapiens.
Test [10] concerns MOLT-3. The experiment in a line: Percent reduction in cell viability of MOLT-3 cells 72 hr after incubation with the compound. Format: functional, Homo sapiens.
Test [11] relates to HeLa. The experiment in a line: Percent reduction in cell viability of HeLa cells 72 hr after incubation with compound. Format: functional, Homo sapiens.
The subject of test [12] is MOLT-3. The experiment in a line: Percent reduction in cell viability of MOLT-3 cells 72 hr after incubation with 100 uM of compound. Format: functional, Homo sapiens.
Test [13] has as its system HeLa. The experiment in a line: Percent reduction in cell viability of HeLa cells 72 hr after incubation with 100 uM of compound. It is filed as functional, Homo sapiens.
For test [14], the system named is L132. The experiment in a line: Percent reduction in cell viability of L-132 cells 72 hr after incubation with 100 uM of compound. It is filed as functional, Homo sapiens.

The text below walks through data of ChEMBL document CHEMBL1144912, “Anticancer activity of phenolic acids of natural or synthetic origin: a structure-activity study” (2003).

SMILES strings stand for the structures.

`O=C(O)CCc1cc(O)c(O)c(O)c1`: the Reduction in the test on MDA-MB-231 [1] came out at 55%; in the test with MOLT-3 [2], 45%.
Regarding `O=C(O)CCc1ccc(O)c(O)c1` [DIHYDROCAFFEIC ACID], the Cell density in the test with HeLa [3] worked out at 500000 cells ml-1.
For `O=C(O)/C=C/c1ccc(O)c(OO)c1`, the Concentration with MOLT-3 [4], with MDA-MB-231 [5], in the test on HeLa [6] and with L132 [7] was 100 µM in each case.
Compound `O=C(O)Cc1ccc(O)c(O)c1` [3,4-DIHYDROXYPHENYLACETIC ACID] came in with a Reduction with MOLT-3 [8] of 75%.
As to `O=C(O)c1cc(O)c(O)c(O)c1` [GALLIC ACID], the Reduction with MDA-MB-231 [9] is 65%; with MOLT-3 [10] it was 50%; with HeLa [11], 74%.
Consider `O=C(O)Cc1cc(O)c(O)c(O)c1`, for which the Reduction with MOLT-3 [12] is recorded as 47%; in the test on MDA-MB-231 [9], 60%; with HeLa [13] it was 80%; in the test on L132 [14] it was 50%.
